Tests used:
[1] = test system: yeast Saccharomyces cerevisiae; experiment: growth defect of yeast on methotrexate drug exposure; type: cell-based; conditions: 100 μM titration of methotrexate
[2] = test system: yeast gene YOL031C expression; experiment: gene transcript array mRNA expression response to methotrexate titrations, Hill function fit; type: cell-based, Saccharomyces cerevisiae; conditions: least squares fit of YOL031C expression response (log10 expression ratio); exposure levels 3, 6, 25, 50, 100, 200 μM
Excerpt: FIG. 2 illustrates an example of perturbation response profiles measured at discrete protein activity levels of dihydrofolate reductase. Specifically, the figure illustrates mRNA expression levels of 30 genes of the yeast Saccharomyces cerevisiae that, of the approximately 6000 genes in the genome of this yeast, had the largest expression changes in response to six different titrations of the drug methotrexate, which is known to act primarily by disrupting the activity of dihydrofolate reductase. These gene expression level measurements were made with gene transcript arrays, as described in Section 5.4. The perturbation response profiles in FIG. 2 can be interpolated according to the methods disclosed in Section 5.3, below, to provide perturbation response profiles for any activity level of dihydrofolate reductase, and are thereby correlated to efficacy of the drug methotrexate.
In model fitting, the perturbation responses are interpolated by approximating each by a single parameterized function. An exemplary model-fitting function appropriate for approximating transcriptional state data is the Hill function, which has adjustable parameters a, u0, and n. [formula]
the adjustable parameters are selected independently for each cellular constituent of the perturbation response. Preferably, the adjustable parameters are selected so that for each cellular constituent the sum of the squares of the distances H(pl) from Rk(Pl) is minimized. This preferable parameter adjustment method is known in the art as a least squares fit of H( ) to Rk( ). Other possible model functions are based on polynomial fitting, for example by various known classes of polynomials.
Model fitting with a Hill function is illustrated with respect to FIGS. 2 and 3. As discussed, FIG. 2 illustrates an example of perturbation by methotrexate and identified by measurement. […]

SMILES: CN(Cc1cnc2nc(N)nc(N)c2n1)c1ccc(C(=O)N[C@@H](CCC(=O)O)C(=O)O)cc1 [methotrexate]
- growth defect [1]: 50%
- Hill function parameter a [2]: −0.61
- Hill function parameter log10(u0) [2]: 1.26
- Hill function parameter n [2]: 2

Reference: patent US20010018182A1, “Methods of monitoring disease states and therapies using gene expression profiles” (Rosetta Inpharmatics, Inc., priority 1998, published 2001)
